The text below walks through data of patent publication US20060167115A1, “Compositions for the preservation of timber” (priority 2003, published 2006).

Values joined by “and” are separate entries in the source; they are usually repeats but may differ in a detail not shown here. Identical values can stand only once. “Also recorded” adds a separate entry of the source.

The test system of test [1] is Coniophora puteana. Description: Biological screening test (modified EN 113), wood block weight loss. The note with it: 7 weeks exposure. Type of test: cell-based. The procedure: (§1) The following fungi were employed in this test: Coniophora puteana (Brown rot fungus) and Poria placenta (Brown rot fungus). The following preservative was tested: TBBA (in ethanol carrier). Five concentrations of the preservative were used: 2%, 1%, 0.1%, 0.05% and 0.01% (w/w).
(§2) All wood blocks employed in the examples to follow were of Scots pine sapwood (Pinus sylvestris) with a volume of 1 cm^3 (10 mm×10 mm×10 mm). Five replicate test specimens were used for each concentration of the preservative. Six virulence control specimens for each fungus were used to establish the wood decay capability of the fungi. Other test blocks were used to establish: the virulence of the test fungi; the absence of a preserving effect of the ethanol carrier; and weight changes of test blocks for reasons other than decay • Treated test specimens: 2 (fungi)×5 (preservative concentrations)×1 (preservative)×5 (replicates)=50 test blocks • Untreated test specimens (for exposure alongside treated blocks): one for each treated block=50 test blocks • Virulence control specimens: 2 (fungi)×6 (replicates)=12 test blocks • Ethanol carrier test specimens: 2 (fungi)×5 (replicates)=10 test blocks • Treated check test specimens: 1 (preservatives)×5 (concentrations)×5 (replicates)=25
(§3) All timber specimens, where applicable, were treated with preservative (vacuum impregnation) and sterilized (ionizing radiation) prior to test, in accordance with European Standard EN 113. The incubation period for the test (length of block exposure to the chosen basidiomycete fungi) was 48 days or just under 7 weeks.
(§4) Weight changes for particular waterlogged specimens, when these are clearly unrepresentative of a group, are not included in the mean figures presented.
(§5) Tables I and II show weight losses (% of initial dry weight) of TBBA treated and untreated control test specimens after 7 weeks exposure to Coniophora puteana and Poria placenta respectively.
(§6) In the tables, “retention” refers to the quantity of preservative that enters the wood per cubic meter of treated wood. It's value is determined by weighing the block of wood before and after it is treated with preservative, taking the difference between the two weights, and dividing the difference in weight by the volume of the block.

In test [2] the test system is Poria placenta. The test is described as above. Type of test: cell-based. The note with it: 7 weeks exposure. How it is done:
as §1, §2, §3, §4, §5, §6

Setting [3] is: TBBA 0.01% w/w in ethanol carrier, retention 0.1 kg/m^3.
Setting [4] is: TBBA 0.05% w/w in ethanol carrier, retention 0.4 kg/m^3.
[5] abbreviates: TBBA 0.1% w/w in ethanol carrier, retention 0.7 kg/m^3.

For `CC(C)(c1cc(Br)c(O)c(Br)c1)c1cc(Br)c(O)c(Br)c1` [TBBA, Tetrabromobisphenol A], the “Corrected mean loss in mass (%)” value in test [1] (setting [3]) is 39.71(2.2) (4) %; in test [1] (setting [4]), 40.63 (7.59) (5) %; in test [1] (setting [5]) it was 24.80 (—) (1) %; in test [1] (TBBA 1% w/w in ethanol carrier, retention 6.7 kg/m^3), 2.39% and 2.39 (1.56) (5) %; in test [1] (TBBA 2% w/w in ethanol carrier, retention 14.1 kg/m^3) it was “no weight loss; also recorded: No mass loss”; in test [2] (setting [3]), 0.88 (0.29) (5) %. Besides, the “Corrected mean loss in mass (%)” value in test [2] (setting [4]) was 4.84 (0.32) (5) %; in test [2] (setting [5]), 26.67% and 26.67(11.04) %; in test [2] (TBBA 1% w/w in ethanol carrier, retention 6.9 kg/m^3), “no weight loss; also recorded: No mass loss”; in test [2] (TBBA 2% w/w in ethanol carrier, retention 14.2 kg/m^3), “no weight loss”.
